What was measured:
Secale cereale [1] = assay: Change in alkylresorcinol homologue composition in dry shoots of green Secale cereale (rye) seedlings grown from compound-treated seeds at 29 +/-2 degC assessed as C15:0 content at 46 uM by GC/EI-MS analysis (reference value: 0.11 mg/kg dry weight); format: functional
Secale cereale [2] = assay: Change in alkylresorcinol homologue composition in dry shoots of green Secale cereale (rye) seedlings grown from compound-treated seeds at 29 +/-2 degC assessed as C17:1 content at 46 uM by GC/EI-MS analysis (reference value: 0.08 mg/kg dry weight); format: functional
Secale cereale [3] = assay: Change in alkylresorcinol homologue composition in dry shoots of etiolated Secale cereale (rye) seedlings grown from compound-treated seeds at 15 +/-2 degC assessed as C15:0 content at 46 uM by GC/EI-MS analysis (reference value: 0.43 mg/kg dry weight); format: functional
Secale cereale [4] = assay: Change in alkylresorcinol homologue composition in dry shoots of green Secale cereale (rye) seedlings grown from compound-treated seeds at 29 +/-2 degC assessed as C23:0 content at 46 uM by GC/EI-MS analysis (reference value: 0.08 mg/kg dry weight); format: functional
Secale cereale [5] = assay: Change in alkylresorcinol homologue composition in dry shoots of etiolated Secale cereale (rye) seedlings grown from compound-treated seeds at 29 +/-2 degC assessed as C25:0 content at 46 uM by GC/EI-MS analysis (reference value: 0.06 mg/kg dry weight); format: functional
Secale cereale [6] = assay: Change in alkylresorcinol content in dry shoots of etiolated Secale cereale (rye) seedlings grown from compound-treated seeds at 22 +/-2 degC at 46 uM by thin layer chromatography (reference value: 6.22 +/-0.09 mg/kg dry weight); format: functional
Secale cereale [7] = assay: Change in alkylresorcinol homologue composition in dry shoots of etiolated Secale cereale (rye) seedlings grown from compound-treated seeds at 22 +/-2 degC assessed as C19:1 content at 46 uM by GC/EI-MS analysis (reference value: 0.24 mg/kg dry weight); format: functional
Secale cereale [8] = assay: Change in alkylresorcinol homologue composition in dry shoots of green Secale cereale (rye) seedlings grown from compound-treated seeds at 22 +/-2 degC assessed as C19:0 content at 46 uM by GC/EI-MS analysis (reference value: 0.56 mg/kg dry weight); format: functional
Secale cereale [9] = assay: Change in alkylresorcinol homologue composition in dry shoots of etiolated Secale cereale (rye) seedlings grown from compound-treated seeds at 15 +/-2 degC assessed as C19:1 content at 46 uM by GC/EI-MS analysis (reference value: 0.54 mg/kg dry weight); format: functional
Secale cereale [10] = assay: Change in alkylresorcinol homologue composition in dry shoots of green Secale cereale (rye) seedlings grown from compound-treated seeds at 22 +/-2 degC assessed as C15:0 content at 46 uM by GC/EI-MS analysis (reference value: 0.24 mg/kg dry weight); format: functional
Secale cereale [11] = assay: Toxicity against green Secale cereale (rye) seedlings assessed as dry biomass of seedling grown at 22 +/-2 degC at 46 uM measured at 5 days after compound-treated seed germination (reference value: 3.28 +/-0.02 g); format: organism-based; conditions: in vivo, 120 h
Secale cereale [12] = assay: Change in alkylresorcinol homologue composition in dry shoots of green Secale cereale (rye) seedlings grown from compound-treated seeds at 22 +/-2 degC assessed as C19:1 content at 46 uM by GC/EI-MS analysis (reference value: 0.20 mg/kg dry weight); format: functional
Secale cereale [13] = assay: Change in alkylresorcinol homologue composition in dry shoots of etiolated Secale cereale (rye) seedlings grown from compound-treated seeds at 22 +/-2 degC assessed as C17:0 content at 46 uM by GC/EI-MS analysis (reference value: 1.35 mg/kg dry weight); format: functional
Secale cereale [14] = assay: Change in alkylresorcinol homologue composition in dry shoots of etiolated Secale cereale (rye) seedlings grown from compound-treated seeds at 29 +/-2 degC assessed as C23:0 content at 46 uM by GC/EI-MS analysis (reference value: 0.18 mg/kg dry weight); format: functional
Secale cereale [15] = assay: Change in alkylresorcinol homologue composition in dry shoots of green Secale cereale (rye) seedlings grown from compound-treated seeds at 15 +/-2 degC assessed as C25:0 content at 46 uM by GC/EI-MS analysis (reference value: 0.06 mg/kg dry weight); format: functional
Secale cereale [16] = assay: Change in alkylresorcinol homologue composition in dry shoots of etiolated Secale cereale (rye) seedlings grown from compound-treated seeds at 29 +/-2 degC assessed as C17:0 content at 46 uM by GC/EI-MS analysis (reference value: 0.48 mg/kg dry weight); format: functional
Secale cereale [17] = assay: Change in alkylresorcinol homologue composition in dry shoots of etiolated Secale cereale (rye) seedlings grown from compound-treated seeds at 22 +/-2 degC assessed as C17:1 content at 46 uM by GC/EI-MS analysis (reference value: 0.11 mg/kg dry weight); format: functional
Secale cereale [18] = assay: Change in alkylresorcinol homologue composition in dry shoots of green Secale cereale (rye) seedlings grown from compound-treated seeds at 15 +/-2 degC assessed as C15:0 content at 46 uM by GC/EI-MS analysis (reference value: 0.24 mg/kg dry weight); format: functional
Secale cereale [19] = assay: Change in alkylresorcinol homologue composition in dry shoots of green Secale cereale (rye) seedlings grown from compound-treated seeds at 15 +/-2 degC assessed as C19:1 content at 46 uM by GC/EI-MS analysis (reference value: 0.23 mg/kg dry weight); format: functional
Secale cereale [20] = assay: Change in alkylresorcinol homologue composition in dry shoots of etiolated Secale cereale (rye) seedlings grown from compound-treated seeds at 22 +/-2 degC assessed as C19:0 content at 46 uM by GC/EI-MS analysis (reference value: 1.83 mg/kg dry weight); format: functional
Secale cereale [21] = assay: Change in alkylresorcinol homologue composition in dry shoots of green Secale cereale (rye) seedlings grown from compound-treated seeds at 15 +/-2 degC assessed as C21:1 content at 46 uM by GC/EI-MS analysis; format: functional
Secale cereale [22] = assay: Change in alkylresorcinol homologue composition in dry shoots of etiolated Secale cereale (rye) seedlings grown from compound-treated seeds at 15 +/-2 degC assessed as C25:0 content at 46 uM by GC/EI-MS analysis (reference value: 0.11 mg/kg dry weight); format: functional
Secale cereale [23] = assay: Change in alkylresorcinol homologue composition in dry shoots of etiolated Secale cereale (rye) seedlings grown from compound-treated seeds at 29 +/-2 degC assessed as C17:1 content at 46 uM by GC/EI-MS analysis (reference value: 0.05 mg/kg dry weight); format: functional
Secale cereale [24] = assay: Change in alkylresorcinol homologue composition in dry shoots of etiolated Secale cereale (rye) seedlings grown from compound-treated seeds at 22 +/-2 degC assessed as C21:1 content at 46 uM by GC/EI-MS analysis (reference value: 0.12 mg/kg dry weight); format: functional
Secale cereale [25] = assay: Change in alkylresorcinol homologue composition in dry shoots of etiolated Secale cereale (rye) seedlings grown from compound-treated seeds at 22 +/-2 degC assessed as C21:0 content at 46 uM by GC/EI-MS analysis (reference value: 1.49 mg/kg dry weight); format: functional

CCSC(=O)N(CC)C1CCCCC1 [CYCLOATE]
Activity (Secale cereale [1]): 0.53 mg/kg | Activity (Secale cereale [2]): 0.75 mg/kg | Activity (Secale cereale [3]): 1.01 mg/kg | Activity (Secale cereale [4]): 0.32 mg/kg | Activity (Secale cereale [5]): 0.23 mg/kg | Activity (Secale cereale [6]): 2.94 mg/kg | Activity (Secale cereale [7]): 0.21 mg/kg | Activity (Secale cereale [8]): 0.87 mg/kg | Activity (Secale cereale [9]): 1.08 mg/kg | Activity (Secale cereale [10]): 0.2 mg/kg | Activity (Secale cereale [11]): 2.03 g | Activity (Secale cereale [12]): 0.36 mg/kg | Activity (Secale cereale [13]): 0.83 mg/kg | Activity (Secale cereale [14]): 0.34 mg/kg | Activity (Secale cereale [15]): 0.09 mg/kg | Activity (Secale cereale [16]): 5.52 mg/kg | Activity (Secale cereale [17]): 0.11 mg/kg | Activity (Secale cereale [18]): 0.75 mg/kg | Activity (Secale cereale [19]): 0.37 mg/kg | Activity (Secale cereale [20]): 0.7 mg/kg | Activity (Secale cereale [21]): 0.19 mg/kg | Activity (Secale cereale [22]): 0.1 mg/kg | Activity (Secale cereale [23]): 0.98 mg/kg | Activity (Secale cereale [24]): 0.11 mg/kg | Activity (Secale cereale [25]): 0.48 mg/kg
